Series [1] has as its target T1, Human cannabinoid receptor CB1R (Homo sapiens, UniProt P21554).
T1 construct: expressed in transfected cells; host or cells: CHO cells
Description: Human cannabinoid receptor binding inhibition, [3H]CP55940, CB1R. The conditions noted are these: membranes of CB1R-expressing CHO cells, [3H]CP55940 0.5 nM; read-out: Ki CB1 receptor. How it is done: (§1) The crude membrane fractions as Human cannabinoid receptor were then prepared from the CB1R or CB2R-expressing CHO cells. Receptor binding assay was performed by incubating the membranes with each test compound and 38,000 dpm [^3H]CP55940 (at a final concentration of 0.5 nM: NEN Life Science Products) in the assay buffer (50 mM Tris-HCl; 1 mM EDTA, 3 mM MgCl2, pH 7.4) containing 0.5% bovine serum albumin (BSA) for 2 hr at 25° C. The incubation mixture was filtered through 1% polyethylenimine (PEI)-treated GF/C glass filter and washed with 50 mM Tris-HCl (pH 7.4) containing 0.1% BSA. The radioactivity was then counted with a liquid scintillation counter. […] Ki value of test compound is calculated by obtained IC50 value and Kd value of [^3H]CP55940.

The target of the next series is T2, human CB2R (Homo sapiens, UniProt P34972).
T2 construct: expressed in transfected cells; host or cells: CHO cells
Description: Cannabinoid receptor-mediated suppression of forskolin-stimulated cAMP synthesis, CB2R. The series is classed as cell-based.

Series [2] has as its target T3, Human cannabinoid receptor CB2R (Homo sapiens, UniProt P34972).
T3 construct: expressed in transfected cells; host or cells: CHO cells
Description: Human cannabinoid receptor binding inhibition, [3H]CP55940, CB2R. The conditions noted are these: membranes of CB2R-expressing CHO cells, [3H]CP55940 0.5 nM; read-out: Ki CB2 receptor. How it is done:
as §1

In the next series the target is T4, human CB1R (Homo sapiens, UniProt P21554).
T4 construct: expressed in transfected cells; host or cells: CHO cells
As to the kind of experiment: cell-based. The conditions noted are these: CHO cells expressing human CB1R, forskolin-stimulated cAMP synthesis; read-out: CB1 receptor IC50.

Setting [3] is: CHO cells expressing human CB2R, forskolin-stimulated cAMP synthesis, read-out: CB2 receptor IC50.

pIC50, pKi: −log10 of the molar value. Read-outs that look alike come from different tables or passages of the source. A value given as a limit tells only on which side of the number the result lay.

T3 sequence (P34972 whole entry): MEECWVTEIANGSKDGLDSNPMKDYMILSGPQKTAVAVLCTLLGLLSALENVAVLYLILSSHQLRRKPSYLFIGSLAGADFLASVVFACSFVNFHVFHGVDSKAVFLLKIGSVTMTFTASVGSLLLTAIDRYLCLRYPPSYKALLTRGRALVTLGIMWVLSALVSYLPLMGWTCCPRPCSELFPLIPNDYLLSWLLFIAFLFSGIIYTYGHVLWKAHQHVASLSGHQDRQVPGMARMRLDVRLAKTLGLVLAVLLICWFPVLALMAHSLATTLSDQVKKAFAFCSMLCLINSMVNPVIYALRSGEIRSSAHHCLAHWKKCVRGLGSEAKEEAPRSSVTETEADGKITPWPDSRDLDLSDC
T2 sequence (P34972 whole entry): as above
T1 sequence (P21554 whole entry): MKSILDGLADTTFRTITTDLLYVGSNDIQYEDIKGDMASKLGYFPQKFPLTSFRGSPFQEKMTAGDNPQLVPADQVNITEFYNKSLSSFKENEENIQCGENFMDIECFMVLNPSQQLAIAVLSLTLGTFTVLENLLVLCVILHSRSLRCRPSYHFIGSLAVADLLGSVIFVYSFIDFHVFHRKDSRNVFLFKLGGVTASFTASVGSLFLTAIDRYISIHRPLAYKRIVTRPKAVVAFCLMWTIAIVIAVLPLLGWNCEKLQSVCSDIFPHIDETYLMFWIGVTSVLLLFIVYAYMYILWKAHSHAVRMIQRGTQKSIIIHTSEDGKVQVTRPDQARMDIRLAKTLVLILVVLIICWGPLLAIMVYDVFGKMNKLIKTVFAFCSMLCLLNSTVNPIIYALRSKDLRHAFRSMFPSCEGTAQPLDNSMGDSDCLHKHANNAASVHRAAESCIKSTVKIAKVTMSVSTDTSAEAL
T4 sequence (P21554 whole entry): as above

For `CCCCn1c2c(cc(C(=O)NCCc3ccc(N)cc3)c1=O)CCCCCC2` [Compound 4-104], the pKi in series [1] is 7.27; in series [2] it was 8.22. This compound also gave a pIC50 at human CB2R of 8.01. For `CC(C)OC(=O)CSC(=S)N1CC(C)(C)CSC1=Nc1ccccc1C(C)C` [II-13], the melting point fell in the range of 95 to 96 °C. In the case of `CCC(C)CNC(=O)c1cc(C)c(C)n(CC2CCCCC2)c1=O` (stereo not shown) [Compound 11-012], the pIC50 on human CB1R was 8.11.

Turning to `CCCCn1c2c(cc(C(=O)NC(C)(C)c3ccccc3)c1=O)[C@@H]1CC[C@H]2C1` [Compound 13-023], the negative-log IC50 (pIC50) on human CB1R is 9.52.

On to `CCCCn1c(C)c(C)cc(C(=O)NCCc2ccccc2)c1=O` [Compound 3-010], for which the pKi in series [2] was 7.24. With `CCCCn1c2c(cc(C(=O)Nc3ccccc3C(F)(F)F)c1=O)CCCCCC2` [Compound 10-103], the negative logarithm of the IC50 (pIC50) at human CB1R is 8.20.

As for `CCNC(=O)N1CC(C)(C)CSC1=Nc1ccccc1C(C)C` [Compound I-92], the melting point was 52 to 53 °C. Moreover, at human CB2R (setting [3]), the pIC50 was greater than 9.70.

For `CCSC(=O)N1CCSC1=Nc1ccccc1C(C)C` [Compound I-6], the negative logarithm of the Ki (pKi) in series [1] was less than 5.30. As to `CCSC(=O)N1CC(C)(C)CSC1=Nc1ccc(C)cc1C` [Compound I-39], the pIC50 at human CB2R (setting [3]) was 7.86. `CCC(C)c1ccccc1N=C1SCC(C)(C)CN1C(=O)SC` (stereo not shown) [Compound I-51] showed a melting point of 53 to 56 °C. The same measure, in the same setting: the value for `CSC(=O)N1CC(C)(C)CSC1=Nc1cccc(C(C)C)c1` [Compound I-52] was 88 to 90 °C. Still for that read-out and setting: the value for `COc1ccccc1N=C1SCC(C)(C)CN1C(=S)SC` [Compound I-60] was 128 to 130 °C. On to `CCCCn1c2c(cc(C(=O)NCCc3ccccc3)c1=O)CCC2` [Compound 4-052], for which the negative logarithm of the Ki (pKi) in series [1] was 5.82; in series [2], 7.62. On to `CCCCn1c2c(cc(C(=O)NC(=O)c3c(F)cccc3F)c1=O)CCCCCC2` [Compound 10-045], for which, on human CB1R, the pIC50 is 8.92. As for `CSC(=S)N1CC(C)(C)CSC1=Nc1ccc(C)c(C)c1` [Compound I-74], the melting point fell in the range of 126 to 128 °C. Further, the pIC50 on human CB2R (setting [3]) is 8.80. Consider `Cc1cc(C(=O)NC2CCCc3ccccc32)c(=O)n(CC2CCCCC2)c1C` (stereo not shown) [Compound 11-011], for which the pIC50 on human CB1R is 9.22.

Regarding `CCCCn1c2c(cc(NC(=O)c3ccccc3Cl)c1=O)CCCCCC2` [Compound 13-006], the pIC50 on human CB1R was 8.80. On to `CCCCn1c2c(cc(C(=O)NCCc3ccc(O)cc3)c1=O)CCCCCC2` [Compound 4-105], for which the figures for the pKi in series [1] and in series [2] were 7.04 and 8.68, respectively. As for `COCCn1c2c(cc(C(=O)NCc3ccccc3)c1=O)CCCCCC2` [Compound 4-301], the pKi in series [1] is 5.75; in series [2] it was 8.10. In the case of `CCCCn1c(C)c(C)cc(NC(=O)Nc2ccccc2Br)c1=O`, the melting point is 154 to 155 °C.

In the case of `CCCCn1c2c(cc(C(=O)NCC(C)(C)C)c1=O)CCCCCC2` [Compound 10-041], the pIC50 at human CB1R is 8.46.

`CCCCn1c(-c2ccccc2)c(C)cc(C(=O)NC(C)(C)c2ccccc2)c1=O` [Compound 13-030]: on human CB1R, the negative logarithm of the IC50 (pIC50) was 9.15.

Consider `CCCCn1c2c(cc(C(=O)N[C@H](CC)c3ccccc3)c1=O)CCCCCC2` [Compound 10-058], for which the pIC50 at human CB1R was 8.62. Turning to `C=CCSC(=S)N1CC2(CCCCC2)CSC1=Nc1ccc(CC)cc1` [II-88], the melting point is 98 to 100 °C. For the compound `CCCCn1c2c(cc(C(=O)N[C@H](C)C3CCCCC3)c1=O)CCCCCC2` [Compound 10-050], the pIC50 on human CB1R was 8.70.

`CSC(=S)N1CC2(CCOCC2)CSC1=Nc1ccccc1C(C)C` [II-93] returned a melting point of 127 to 128 °C.

Turning to `O=C(NCc1ccccc1)c1cc2c(n(Cc3ccncc3)c1=O)CCCCCC2` [Compound 4-310], the results for the pKi in series [1] and in series [2] were 6.29 and 8.05, respectively.

Regarding `Cc1cc(C(=O)NCC(C)(C)C)c(=O)n(CC2CCCCC2)c1C` [Compound 11-013], at human CB1R, the pIC50 is 8.12. Take `CCCCn1c(C)c(C)cc(NC(=O)c2ccc(F)cc2)c1=O`: the melting point was 129 to 130 °C. For the compound `CCCCn1c2c(cc(C(=O)NCCc3ccccc3)c1=O)CCCC2` [Compound 4-002, 1-butyl-2-oxo-1,2,5,6,7,8-hexahydroquinoline-3-carboxylic acid phenethylamide], the figures for the pKi in series [1] and in series [2] were 6.13 and 7.77, respectively. Consider `CCCCn1c(C)c(C)cc(Oc2nc3ccccc3o2)c1=S` [Compound 2-004, 1-butyl-5,6-dimethyl-3-O-(benzoxazol-2-yl)-2-thiopyridone], for which the pKi in series [2] is 7.00.

As to `CCCCn1c(C)c(C)cc(NC(=O)c2ccccc2C)c1=O` [Compound 5-006], the pKi in series [2] was 7.85. Compound `CCCc1ccccc1N=C1SCC(C)(C)CN1C(=O)SC` [Compound I-49] registered a melting point of 64 to 66 °C. In addition, on human CB2R (setting [3]), the pIC50 is 8.66. For `CCCCn1c2c(cc(C(=O)NCc3ccccc3)c1=O)CCCC2` [Compound 4-001], the pKi in series [1] was 5.55; in series [2], 7.55. The compound further gave a pIC50 on human CB2R of 7.19.

In the case of `CCSC(=S)N1CC(C)(C)CSC1=Nc1ccccc1C(C)C` [Compound I-84], the melting point lay in the range of 68 to 70 °C. The same measure, in the same setting: the figure for `C=CCSC(=S)N1CC2(CCOCC2)CSC1=Nc1ccccc1C(C)C` [II-92] is 73.5 to 75 °C. For `CCCCn1c(C)c(C)cc(NC(=O)c2ccccc2Cl)c1=O` [Compound 5-005], in series [2], the negative-log Ki (pKi) was 7.80. Consider `Cc1c(C)c(C)n(CC2CCCCC2)c(=O)c1C(=O)NCc1ccccc1` [Compound 3-109], for which, at human CB1R, the negative-log IC50 (pIC50) was 8.57. On to `CCCCn1c(C)c(C)cc(C(=O)NC(C)(C)c2ccccc2)c1=O` [Compound 11-001], for which the pIC50 on human CB1R was 8.92. For `CCSC(=O)N1CC(C)(C)CSC1=Nc1ccc([N+](=O)[O-])cc1C(C)C` [Compound I-46], the melting point was in the range of 119 to 120 °C. In addition, the pIC50 at human CB2R (setting [3]) is 8.27. Turning to `CCc1ccccc1N=C1SCC(C)(C)CN1C(=S)SC` [Compound I-56], the melting point lay in the range of 107 to 109 °C. For `CCCCn1c2c(cc(C(=O)NC(C)(C)c3ccccc3)c1=O)COCC2` [Compound 13-044], the pIC50 at human CB1R is 8.74. The same measure, in the same setting: the value for `CCCCn1c2c(cc(C(=O)N[C@@H](CC)c3ccccc3)c1=O)CCCCCC2` [Compound 10-059] was 8.21. For the compound `CCn1c(C)c(C)cc(C(=O)NCc2ccccc2)c1=O`, the melting point stood at 117 °C.

Regarding `COc1c(Oc2nc3ccccc3o2)c(C)c(C)n(Cc2ccccc2)c1=O`, the melting point lay within 197 to 198 °C. `Cc1ccc(Oc2nc3ccccc3o2)c(=S)n1C` showed a melting point of 245 to 247 °C.

Compound `COCC(=O)N1CC(C)(C)CSC1=Nc1ccccc1C(C)C` [Compound I-93] yielded a melting point of 76 to 78 °C. On human CB2R (setting [3]), the pIC50 was 9.22. Compound `CSC(=S)N1CC(C)(C)CSC1=Nc1ccccc1SC` [Compound I-62] yielded a melting point of 137 to 139 °C. As to `CSC(=O)N1CC(C)(C)CSC1=Nc1ccccc1C(C)C` [Compound I-50], the melting point fell in the range of 95 to 96 °C. On to `COCCn1c2c(cc(C(=O)NCCc3ccccc3)c1=O)CCCCCC2` [Compound 4-302], for which the pKi in series [1] is less than 5.30; in series [2] it was 8.00. As for `CCCCn1c(C)c(C)cc(NC(=O)OCc2ccccc2)c1=O`, the melting point lay within 65 to 66 °C. Regarding `CCCCn1c2c(cc(C(=O)N[C@H](CF)c3ccccc3)c1=O)CCCCCC2` [Compound 10-089], the pIC50 at human CB1R was 8.03.

As usually defined, the pKi is the negative decadic logarithm of the Ki, by convention in mol/L. What is called pIC50 is the negative decadic logarithm of the IC50, by convention in mol/L. By melting point is commonly meant the temperature of the solid-liquid transition.

The values above are taken from US20080312292A1, “Antipruritics” (priority 2002, published 2008).
